In US8969395B2, “Triterpenoid derivatives useful as antiproliferative agents” (Universidade de Coimbra, priority 2009, dated 2015):

How the values were obtained:
Type in all cases: cell-based
[1] = tested on: HepG2 (human hepatocellular carcinoma); test: Cytotoxic activity, MTT assay, HepG2; settings: 72 h, mean ±SD
Protocol: (§1) The cytotoxic of compounds of formulas (I) and (II) 14-50 was assessed towards human cancer (HepG2, HeLa and Jurkat) cell lines (Table 3 below). Compounds presented on Table 4 were also tested against a non-tumoral liver cell line (Chang liver). The cell viability of HeLa, HepG2 and Chang liver cells was determined by the MTT assay. Briefly, exponentially growing cells were plated in 96-well plates at a density of 1×10^3, 8×10^3 and 5×10^3 cells/well respectively and incubated for 24 h before treatment. The grown medium was replaced with one contained the tested compounds dissolved in DMSO (final DMSO concentration <0.1%) at different concentrations, in triplicate wells, and cells were incubated for 72 h. After incubation with the compounds, the medium was removed and MTT solution (0.5 mg/ml, 100 μl) was added to each well and the plates were incubated again for 1 h. DMSO (100 μl) was then added to dissolve the formazan crystals and the plates were immediately read at 550 nm on an ELISA plate reader (Tecan Sunrise MR20-301, TECAN, Austria). For the Jurkat cells, the cell viability was determined by the XTT assay. Briefly, exponentially growing cells were plated in 96-well plates at a density of 5.5×10^3 cells/well, treated with different concentrations of compounds in triplicate and incubated for 72 h. After incubation with the compounds the XTT labeling mixture (100 μl) were added to each of the wells and after a 4 h incubation period the plates were read at 450 nm on an ELISA plate reader. […] Known for its cytotoxic activity, betulinic acid 2 was used as a positive control in this experimentation. […] All the IC50 results represent an average of a minimum of three experiments and were expressed as means±standard deviation (SD).

[2] = tested on: Jurkat (human leukemia); test: Cytotoxic activity, XTT assay, Jurkat; settings: 72 h, mean ±SD
Protocol: as §1

[3] = tested on: HeLa (human cervical adenocarcinoma); test: Cytotoxic activity, MTT assay, HeLa; settings: 72 h, mean ±SD
Protocol: The cytotoxic of compounds of formulas (I) and (II) 14-50 was assessed towards human cancer (HepG2, HeLa and Jurkat) cell lines (Table 3 below). Compounds presented on Table 4 were also tested against a non-tumoral liver cell line (Chang liver). The cell viability of HeLa, HepG2 and Chang liver cells was determined by the MTT assay. Briefly, exponentially growing cells were plated in 96-well plates at a density of 1×10^3, 8×10^3 and 5×10^3 cells/well respectively and incubated for 24 h before treatment. The grown medium was replaced with one contained the tested compounds dissolved in DMSO (final DMSO concentration <0.1%) at different concentrations, in triplicate wells, and cells were incubated for 72 h. After incubation with the compounds, the medium was removed and MTT solution (0.5 mg/ml, 100 μl) was added to each well and the plates were incubated again for 1 h. DMSO (100 μl) was then added to dissolve the formazan crystals and the plates were immediately read at 550 nm on an ELISA plate reader (Tecan Sunrise MR20-301, TECAN, Austria). For the Jurkat cells, the cell viability was determined by the XTT assay. Briefly, exponentially growing cells were plated in 96-well plates at a density of 5.5×10^3 cells/well, treated with different concentrations of compounds in triplicate and incubated for 72 h. After incubation with the compounds the XTT labeling mixture (100 μl) were added to each of the wells and after a 4 h incubation period the plates were read at 450 nm on an ELISA plate reader. […] Known for its cytotoxic activity, betulinic acid 2 was used as a positive control in this experimentation.

[4] = tested on: HT-29 (human colon adenocarcinoma); test: Cytotoxic activity, HT-29; settings: mean ±SD
Protocol: Compounds presented in Table 6 were also tested in the following cell lines: PC-3 (human prostate adenocarcinoma), LNCaP (human prostate adenocarcinoma), LAPC4 (human prostate adenocarcinoma) and HT-29 (human colon adenocarcinoma).

Row | Structure (SMILES) | IC50 [1] | IC50 [2] | IC50 [3] | IC50 [4]
1 | C=C(COC)[C@@H]1CC[C@]2(COC(=O)n3ccnc3C)CC[C@]3(C)[C@H](CC[C@@H]4[C@@]5(C)CC[C@H](O)C(C)(C)[C@@H]5CC[C@]43C)[C@@H]12 [Compound 36, 3β-hydroxy-30-methoxylup-20(29)-en-28-yl-2′-methyl-1H-imidazole-1-carboxylate] | 14.4 ± 1.3 µM | 24.8 ± 4.7 µM | 8.9 ± 2.1 µM | 10.4 ± 1.6 µM
2 | Cc1nccn1C(=O)OC[C@]12CC[C@@H]([C@@H](C)C=O)C1[C@H]1CC[C@@H]3[C@@]4(C)CC[C@H](O)C(C)(C)[C@@H]4CC[C@@]3(C)[C@]1(C)CC2 (stereo partly drawn) [Compound 42, 3β-hydroxy-(20R)-lupan-29-oxo-28-yl-2′-methyl-1H-imidazole-1-carboxylate] | 14.3 ± 2.4 µM | 21.3 ± 4.1 µM | 16.6 ± 1.5 µM | 15.8 ± 1.7 µM
3 | C=C(C)[C@@H]1CC[C@]2(C(=O)n3ccnc3C)CC[C@]3(C)[C@H](CC[C@@H]4[C@@]5(C)CCC(=O)C(C)(C)[C@@H]5CC[C@]43C)[C@@H]12 [Compound 45, 28-(2′-methyl-1H-imidazol-1-yl)-lup-20(29)-en-3,28-dione] | 5.5 ± 1.1 µM | 9.3 ± 2.2 µM | 4.2 ± 1.2 µM | 4.7 ± 1.1 µM
4 | C=C(C)[C@@H]1CC[C@]2(C(=O)n3ccnc3C)CC[C@]3(C)[C@H](CC[C@@H]4[C@@]5(C)C=CC(=O)C(C)(C)[C@@H]5CC[C@]43C)[C@@H]12 [Compound 47, 28-(2′-methyl-1H-imidazol-1-yl)-lup-1,20(29)-dien-3,28-dione] | 12.7 ± 1.2 µM | 9.4 ± 0.8 µM | 6.4 ± 0.8 µM | 5.9 ± 0.3 µM
5 | C=C(C)[C@@H]1CC[C@]2(C(=O)O)CC[C@]3(C)[C@H](CC[C@@H]4[C@@]5(C)C=C(OC(=O)n6ccnc6C)C(=O)C(C)(C)[C@@H]5CC[C@]43C)[C@@H]12 [Compound 50, 2-(2′-methyl-1H-imidazole-1-carbonyloxy)-3-oxolup-1,20(29)-dien-28-oic acid] | 6.8 ± 1.5 µM | 12.5 ± 1.2 µM | 10.6 ± 0.7 µM | 9 ± 1.7 µM
